# Calls of active or inactive are those of the source.
# Key:
# [1] = A cytotoxicity screen of small molecule inhibitors of the PhoP region in Salmonella typhi identified in the primary screen. [Related pubchem assays: 1850, 1864, 1985 ]; format: functional
# [2] = biological target: T1, Aspartyl aminopeptidase (Plasmodium falciparum 3D7, UniProt Q8I2J3)
# T1 sequence (Q8I2J3 whole entry): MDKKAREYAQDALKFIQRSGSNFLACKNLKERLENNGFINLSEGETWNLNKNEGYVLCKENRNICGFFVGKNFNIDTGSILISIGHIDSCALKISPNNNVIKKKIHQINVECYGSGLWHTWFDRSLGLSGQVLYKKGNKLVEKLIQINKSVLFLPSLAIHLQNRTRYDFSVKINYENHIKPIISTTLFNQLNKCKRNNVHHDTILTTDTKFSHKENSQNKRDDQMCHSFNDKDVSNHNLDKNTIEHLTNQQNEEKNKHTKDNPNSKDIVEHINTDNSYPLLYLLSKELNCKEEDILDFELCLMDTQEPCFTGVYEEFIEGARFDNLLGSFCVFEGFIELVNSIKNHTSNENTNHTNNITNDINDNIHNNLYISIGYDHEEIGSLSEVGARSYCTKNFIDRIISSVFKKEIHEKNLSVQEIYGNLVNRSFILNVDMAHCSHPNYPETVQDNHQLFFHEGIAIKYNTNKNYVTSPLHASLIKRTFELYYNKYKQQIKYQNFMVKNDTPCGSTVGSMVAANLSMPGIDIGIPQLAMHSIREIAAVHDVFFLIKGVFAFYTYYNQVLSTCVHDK
# [3] = biological target: Procathepsin L (Homo sapiens, UniProt P07711)
# [4] = biological target: Glyceraldehyde-3-phosphate dehydrogenase (Homo sapiens, UniProt P04406)
# [5] = cytotoxicity in HEK-293T cells, dose response, cytotoxicity control for BCR NF-kB inhibitor project, luminescence, B-cell screen hits (AID 489021); format: functional, cell-based;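 note: HEK-293T cells carrying an NF-kB luciferase reporter; cells exposed to compound for about 14 hours before viability readout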
# [6] = inhibitors of firefly luciferase expression or activity, dose response, H4 neuroglioma cells, luminescence (AID 1990); format: functional, cell-based
# [7] = biological target: T2, Zinc finger protein mex-5 (Caenorhabditis elegans, UniProt Q9XUB2); experiment: MEX-5/TCR-2 RNA interaction inhibitors, dose response, biochemical, C. elegans, fluorescence polarization (AID 1960)
# T2 sequence (Q9XUB2 whole entry): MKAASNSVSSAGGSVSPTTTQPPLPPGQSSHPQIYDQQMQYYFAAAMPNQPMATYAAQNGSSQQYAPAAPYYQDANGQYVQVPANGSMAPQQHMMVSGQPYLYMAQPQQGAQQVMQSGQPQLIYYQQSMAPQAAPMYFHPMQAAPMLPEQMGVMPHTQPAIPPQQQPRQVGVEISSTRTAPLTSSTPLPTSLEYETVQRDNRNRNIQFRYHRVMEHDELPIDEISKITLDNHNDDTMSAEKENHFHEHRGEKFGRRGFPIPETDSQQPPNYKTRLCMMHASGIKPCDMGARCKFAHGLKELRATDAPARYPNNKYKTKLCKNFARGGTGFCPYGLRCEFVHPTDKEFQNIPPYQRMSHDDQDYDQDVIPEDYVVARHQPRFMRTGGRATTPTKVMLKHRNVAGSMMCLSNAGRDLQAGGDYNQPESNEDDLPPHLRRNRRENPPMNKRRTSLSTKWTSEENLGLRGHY
# [8] = Luminescence Cell-Based Dose Response HTS to Identify Inhibitors of 5'UTR Stem-Loop Driven Prion Protein mRNA Translation in H4 Neuroglioblastoma Cells. [Related pubchem assays: 1827 (Project Summary), 1813 (Primary HTS)]; format: functional
# [9] = inhibitors of SNCA 5'UTR-driven reporter translation, confirmation, H4 neuroglioma cells, luminescence (AID 1988); format: functional, cell-based
# [10] = system: HT-1080; experiment: cytotoxicity in HT1080 fibrosarcoma cells, cell-based, fluorescence readout (AID 620); format: functional; conditions: Homo sapiens
# [11] = biological target: Heat shock protein HSP 90-alpha (Homo sapiens, UniProt P07900); experiment: Luminescence-based dose response biochemical high throughput screening assay for inhibitors of the Heat Shock Protein 90 (HSP90). [Related pubchem assays: 1831 (Summary AID.), 1846 (Confirmation screen.), 1789 (Primary screen.)]
# [12] = biological target: T3, RNA-binding protein pos-1 (Caenorhabditis elegans, UniProt G5EF15); experiment: inhibitors of POS-1/mex-3 RNA binding, dose response, biochemical, fluorescence polarization (AID 1964);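 note: purified POS-1 fused to maltose binding protein made in E. coli; potency of compounds blocking POS-1 binding to fluorescent RNA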
# T3 sequence (G5EF15 whole entry): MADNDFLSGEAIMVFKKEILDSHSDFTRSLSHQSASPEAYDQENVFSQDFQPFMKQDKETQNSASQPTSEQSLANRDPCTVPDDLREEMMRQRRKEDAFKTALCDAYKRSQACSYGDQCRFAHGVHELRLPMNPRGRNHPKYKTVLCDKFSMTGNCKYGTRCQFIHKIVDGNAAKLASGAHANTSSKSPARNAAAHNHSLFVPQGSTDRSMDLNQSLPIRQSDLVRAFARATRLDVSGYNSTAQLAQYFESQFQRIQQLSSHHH
# [13] = biological target: Luciferin 4-monooxygenase (Photinus pyralis, UniProt P08659); experiment: Counter Screen for Luciferase-based Assay Positives. [Related pubchem assays: 620, 618, 411 ]
# [14] = biological target: Cytochrome P450 2C19 (Homo sapiens, UniProt P33261); experiment: Cytochrome panel assay with activity outcomes. Panel member name: p450-cyp2c19 Compounds with AC50 equal or less than 10 uM are considered active; format: functional; conditions: read-out: AC50
# [15] = biological target: T4, Acyl-homoserine lactone acylase PvdQ (Pseudomonas aeruginosa (strain LESB58), UniProt Q9I194); experiment: P. aeruginosa PvdQ acylase inhibitors, dose response, biochemical, fluorescence, plate reader and imaging, cherry-picks (AID 493231)
# T4 sequence (Q9I194 whole entry): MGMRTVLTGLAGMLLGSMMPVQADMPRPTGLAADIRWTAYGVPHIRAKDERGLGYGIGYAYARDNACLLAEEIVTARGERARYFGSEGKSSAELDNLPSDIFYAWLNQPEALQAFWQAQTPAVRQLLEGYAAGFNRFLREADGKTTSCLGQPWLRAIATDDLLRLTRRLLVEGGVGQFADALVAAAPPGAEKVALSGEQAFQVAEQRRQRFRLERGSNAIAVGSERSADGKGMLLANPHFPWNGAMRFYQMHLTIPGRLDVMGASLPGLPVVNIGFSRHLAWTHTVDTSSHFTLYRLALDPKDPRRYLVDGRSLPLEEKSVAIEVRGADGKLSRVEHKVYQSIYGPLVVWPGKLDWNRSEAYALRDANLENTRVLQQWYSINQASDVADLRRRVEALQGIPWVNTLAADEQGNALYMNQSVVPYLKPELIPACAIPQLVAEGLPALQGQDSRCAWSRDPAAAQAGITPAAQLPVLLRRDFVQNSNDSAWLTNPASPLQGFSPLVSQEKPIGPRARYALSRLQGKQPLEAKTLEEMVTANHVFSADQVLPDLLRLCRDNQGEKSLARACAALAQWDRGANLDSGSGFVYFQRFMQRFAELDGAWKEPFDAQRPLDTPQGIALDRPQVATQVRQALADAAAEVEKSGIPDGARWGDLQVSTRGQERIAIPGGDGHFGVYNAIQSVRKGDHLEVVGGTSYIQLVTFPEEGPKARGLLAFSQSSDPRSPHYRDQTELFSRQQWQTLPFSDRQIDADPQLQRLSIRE
# [16] = biological target: Cytochrome P450 2D6 (Homo sapiens, UniProt P10635);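 note: CYP2D6 member of a cytochrome P450 panel assay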
# [17] = biological target: T5, X-box-binding protein 1 (Homo sapiens, UniProt P17861); format: functional, Cricetulus griseus;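 note: confirmatory dose-response counter-screen serving a CHOP assay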
# T5 sequence (P17861 whole entry): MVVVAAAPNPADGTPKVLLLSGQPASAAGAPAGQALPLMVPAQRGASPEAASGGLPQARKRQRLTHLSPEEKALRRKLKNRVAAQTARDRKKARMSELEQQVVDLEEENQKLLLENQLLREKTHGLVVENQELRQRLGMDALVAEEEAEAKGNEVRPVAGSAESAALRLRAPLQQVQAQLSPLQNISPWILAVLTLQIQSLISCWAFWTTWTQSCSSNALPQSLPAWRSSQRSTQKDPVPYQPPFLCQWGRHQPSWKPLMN
# [18] = system: Streptococcus; experiment: Group A Streptococcus viability loss, dose response, counter-screen for streptokinase expression inhibitor project, luminescence, BacTiterGlo (AID 1915); format: functional, organism-based;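 note: potency for reduction of bacterial viability or growth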
# [19] = system: Streptococcus sp. 'group A'; experiment: growth inhibition of control SK(-) GAS strain, dose response, counter-screen for streptokinase expression inhibitor project, luminescence, kanamycin, BacTiterGlo, confirmation (AID 1900); format: functional, organism-based
# [20] = biological target: T6, Streptokinase A (Streptococcus pyogenes serotype M1, UniProt P10520); experiment: S. pyogenes streptokinase expression inhibitors, potency, dose response, plasminogen activation absorbance, OD405 (AID 1914); format: functional, Streptococcus pyogenes M1 GAS;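 note: secreted streptokinase activity via plasminogen activation per viability signal from cell pellet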
# T6 sequence (P10520 whole entry): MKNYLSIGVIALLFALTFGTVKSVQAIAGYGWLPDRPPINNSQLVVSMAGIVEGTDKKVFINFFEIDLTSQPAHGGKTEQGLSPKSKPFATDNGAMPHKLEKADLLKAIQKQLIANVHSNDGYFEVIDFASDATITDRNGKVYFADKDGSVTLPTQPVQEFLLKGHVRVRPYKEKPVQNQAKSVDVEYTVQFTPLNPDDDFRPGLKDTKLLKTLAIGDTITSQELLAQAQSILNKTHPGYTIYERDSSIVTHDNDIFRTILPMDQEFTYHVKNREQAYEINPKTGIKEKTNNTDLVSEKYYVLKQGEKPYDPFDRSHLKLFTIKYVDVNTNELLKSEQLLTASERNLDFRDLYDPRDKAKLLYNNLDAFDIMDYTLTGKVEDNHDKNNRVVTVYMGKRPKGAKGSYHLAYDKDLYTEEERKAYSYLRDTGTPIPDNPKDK
# [21] = biological target: Trypsin (Sus scrofa, UniProt P00761); experiment: porcine trypsin inhibitors, dose response, selectivity assay for Rce1 protease inhibitor project, biochemical, quenched peptide fluorescence, cherry-pick (AID 488789)
# [22] = biological target: DNA dC->dU-editing enzyme APOBEC-3G (Homo sapiens, UniProt Q9HC16); experiment: Dose Response confirmation of small molecule APOBEC3G DNA Deaminase Inhibitors via a fluorescence-based single-stranded DNA deaminase assay. [Related pubchem assays (depositor defined):AID493012, AID493028]; format: functional
# [23] = biological target: Induced myeloid leukemia cell differentiation protein Mcl-1 (Homo sapiens, UniProt Q07820); format: functional
# [24] = biological target: T7, SUMO-activating enzyme (Homo sapiens, UniProt Q9UBT2); experiment: SUMOylation inhibitor hit validation, confirmation, SUMOylation inhibitor project, biochemical, AlphaScreen (AID 2018); format: functional
# [25] = biological target: T7, SUMO-activating enzyme; experiment: inhibitors of in vitro SUMOylation cascade, primary screen, biochemical, HTRF, uHTS (AID 2006); format: protein-complex assay
# Chain of Procathepsin L (P07711 whole entry): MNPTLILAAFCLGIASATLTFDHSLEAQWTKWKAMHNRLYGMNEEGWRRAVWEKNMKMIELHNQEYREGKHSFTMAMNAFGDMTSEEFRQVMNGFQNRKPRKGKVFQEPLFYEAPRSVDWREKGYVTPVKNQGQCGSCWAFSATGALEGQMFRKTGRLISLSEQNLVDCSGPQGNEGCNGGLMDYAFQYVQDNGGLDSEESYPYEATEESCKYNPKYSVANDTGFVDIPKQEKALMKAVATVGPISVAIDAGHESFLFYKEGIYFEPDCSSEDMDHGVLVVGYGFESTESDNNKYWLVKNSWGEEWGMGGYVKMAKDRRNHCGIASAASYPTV
# T7 sequence (Q9UBE0 whole entry): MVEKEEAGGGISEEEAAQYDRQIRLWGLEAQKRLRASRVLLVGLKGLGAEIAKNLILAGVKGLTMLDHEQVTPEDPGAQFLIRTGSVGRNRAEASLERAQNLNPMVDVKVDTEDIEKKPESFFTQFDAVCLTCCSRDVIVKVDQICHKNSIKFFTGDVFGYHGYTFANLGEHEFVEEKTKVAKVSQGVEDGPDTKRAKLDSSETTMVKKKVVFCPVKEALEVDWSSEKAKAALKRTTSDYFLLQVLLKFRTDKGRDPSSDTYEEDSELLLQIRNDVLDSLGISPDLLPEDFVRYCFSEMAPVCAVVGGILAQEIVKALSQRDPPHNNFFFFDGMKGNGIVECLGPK
# T7 sequence (Q9UBT2 whole entry): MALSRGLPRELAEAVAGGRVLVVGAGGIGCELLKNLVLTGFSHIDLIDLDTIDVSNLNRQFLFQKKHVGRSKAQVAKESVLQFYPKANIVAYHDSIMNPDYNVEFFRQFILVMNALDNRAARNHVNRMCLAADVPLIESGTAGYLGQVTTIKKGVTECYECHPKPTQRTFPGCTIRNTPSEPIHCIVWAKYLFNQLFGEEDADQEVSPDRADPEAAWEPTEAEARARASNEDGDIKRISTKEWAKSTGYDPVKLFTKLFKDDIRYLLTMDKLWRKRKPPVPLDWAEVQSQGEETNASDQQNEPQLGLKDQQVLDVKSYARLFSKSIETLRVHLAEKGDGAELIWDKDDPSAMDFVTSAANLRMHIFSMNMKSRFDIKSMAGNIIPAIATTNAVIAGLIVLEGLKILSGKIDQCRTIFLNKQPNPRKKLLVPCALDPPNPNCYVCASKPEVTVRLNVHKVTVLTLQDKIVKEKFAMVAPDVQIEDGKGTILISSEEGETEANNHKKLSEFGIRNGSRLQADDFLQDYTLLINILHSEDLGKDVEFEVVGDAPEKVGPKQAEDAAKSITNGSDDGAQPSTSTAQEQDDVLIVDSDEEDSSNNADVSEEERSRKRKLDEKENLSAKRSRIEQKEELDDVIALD
# Chain of Trypsin (P00761 whole entry): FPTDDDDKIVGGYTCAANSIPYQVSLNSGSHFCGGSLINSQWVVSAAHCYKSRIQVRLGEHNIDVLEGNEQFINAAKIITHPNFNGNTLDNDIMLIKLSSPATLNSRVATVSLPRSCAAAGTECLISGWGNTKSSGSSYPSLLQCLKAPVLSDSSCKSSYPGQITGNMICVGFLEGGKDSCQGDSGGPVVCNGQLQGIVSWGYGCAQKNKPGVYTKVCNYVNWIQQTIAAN
# Chain of Luciferin 4-monooxygenase (P08659 whole entry): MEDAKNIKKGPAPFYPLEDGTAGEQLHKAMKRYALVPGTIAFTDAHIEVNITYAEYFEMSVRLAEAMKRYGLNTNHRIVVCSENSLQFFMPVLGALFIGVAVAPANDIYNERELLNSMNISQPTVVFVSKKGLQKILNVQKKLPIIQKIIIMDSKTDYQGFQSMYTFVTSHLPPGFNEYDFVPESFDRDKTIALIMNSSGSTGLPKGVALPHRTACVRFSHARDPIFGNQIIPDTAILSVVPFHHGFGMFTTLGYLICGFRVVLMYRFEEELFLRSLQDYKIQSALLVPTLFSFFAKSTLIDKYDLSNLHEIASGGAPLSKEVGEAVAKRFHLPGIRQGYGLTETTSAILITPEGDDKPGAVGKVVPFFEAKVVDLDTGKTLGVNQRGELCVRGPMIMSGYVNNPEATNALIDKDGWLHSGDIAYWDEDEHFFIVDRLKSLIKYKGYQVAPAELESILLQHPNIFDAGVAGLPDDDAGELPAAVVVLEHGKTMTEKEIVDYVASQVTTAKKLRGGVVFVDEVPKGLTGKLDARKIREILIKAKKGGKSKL
# Chain of Cytochrome P450 2C19 (P33261 whole entry): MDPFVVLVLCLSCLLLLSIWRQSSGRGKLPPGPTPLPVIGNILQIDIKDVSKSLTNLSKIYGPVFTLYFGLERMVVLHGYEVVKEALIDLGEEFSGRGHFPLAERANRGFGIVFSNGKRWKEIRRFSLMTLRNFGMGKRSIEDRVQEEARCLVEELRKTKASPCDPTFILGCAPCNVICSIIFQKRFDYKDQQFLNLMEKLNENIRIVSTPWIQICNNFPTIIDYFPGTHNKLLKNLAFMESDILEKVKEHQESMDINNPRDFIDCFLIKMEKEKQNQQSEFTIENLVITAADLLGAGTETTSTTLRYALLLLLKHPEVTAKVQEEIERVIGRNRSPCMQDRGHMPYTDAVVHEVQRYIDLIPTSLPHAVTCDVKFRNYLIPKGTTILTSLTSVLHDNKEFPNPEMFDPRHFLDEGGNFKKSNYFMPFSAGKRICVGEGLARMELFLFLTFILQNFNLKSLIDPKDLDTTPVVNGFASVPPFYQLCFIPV
# Chain of Glyceraldehyde-3-phosphate dehydrogenase (P04406 whole entry): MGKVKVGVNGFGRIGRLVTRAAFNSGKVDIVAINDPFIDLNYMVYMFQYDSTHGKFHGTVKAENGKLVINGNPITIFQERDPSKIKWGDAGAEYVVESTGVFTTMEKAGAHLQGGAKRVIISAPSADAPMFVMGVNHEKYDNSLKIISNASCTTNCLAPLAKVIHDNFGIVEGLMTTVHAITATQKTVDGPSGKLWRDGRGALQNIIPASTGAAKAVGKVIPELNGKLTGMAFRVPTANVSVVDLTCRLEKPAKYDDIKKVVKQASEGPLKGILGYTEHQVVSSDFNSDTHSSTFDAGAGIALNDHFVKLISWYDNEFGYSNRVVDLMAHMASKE
# Chain of Induced myeloid leukemia cell differentiation protein Mcl-1 (Q07820 whole entry): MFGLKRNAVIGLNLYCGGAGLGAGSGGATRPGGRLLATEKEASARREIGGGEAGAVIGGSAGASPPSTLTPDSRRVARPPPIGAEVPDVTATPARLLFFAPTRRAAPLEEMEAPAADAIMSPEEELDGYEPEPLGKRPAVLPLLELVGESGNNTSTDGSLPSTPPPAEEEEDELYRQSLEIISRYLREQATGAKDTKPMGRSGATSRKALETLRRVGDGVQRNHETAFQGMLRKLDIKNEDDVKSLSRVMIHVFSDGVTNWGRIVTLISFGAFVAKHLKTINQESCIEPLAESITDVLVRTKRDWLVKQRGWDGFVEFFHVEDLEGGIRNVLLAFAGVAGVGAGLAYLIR
# Chain of Cytochrome P450 2D6 (P10635 whole entry): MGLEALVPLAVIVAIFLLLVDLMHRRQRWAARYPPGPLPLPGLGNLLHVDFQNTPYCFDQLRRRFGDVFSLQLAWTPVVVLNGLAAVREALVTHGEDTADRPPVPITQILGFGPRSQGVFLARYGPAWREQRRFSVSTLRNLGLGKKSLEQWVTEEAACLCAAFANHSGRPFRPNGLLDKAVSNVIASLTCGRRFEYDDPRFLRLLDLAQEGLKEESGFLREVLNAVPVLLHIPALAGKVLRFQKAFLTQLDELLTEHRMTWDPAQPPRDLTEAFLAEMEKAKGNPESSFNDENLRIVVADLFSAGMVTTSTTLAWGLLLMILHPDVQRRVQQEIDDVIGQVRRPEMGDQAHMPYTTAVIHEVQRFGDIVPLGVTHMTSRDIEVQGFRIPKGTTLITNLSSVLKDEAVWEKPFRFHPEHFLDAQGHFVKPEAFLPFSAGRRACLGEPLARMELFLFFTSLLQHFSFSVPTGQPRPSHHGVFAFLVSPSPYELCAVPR
# Chain of DNA dC->dU-editing enzyme APOBEC-3G (Q9HC16 whole entry): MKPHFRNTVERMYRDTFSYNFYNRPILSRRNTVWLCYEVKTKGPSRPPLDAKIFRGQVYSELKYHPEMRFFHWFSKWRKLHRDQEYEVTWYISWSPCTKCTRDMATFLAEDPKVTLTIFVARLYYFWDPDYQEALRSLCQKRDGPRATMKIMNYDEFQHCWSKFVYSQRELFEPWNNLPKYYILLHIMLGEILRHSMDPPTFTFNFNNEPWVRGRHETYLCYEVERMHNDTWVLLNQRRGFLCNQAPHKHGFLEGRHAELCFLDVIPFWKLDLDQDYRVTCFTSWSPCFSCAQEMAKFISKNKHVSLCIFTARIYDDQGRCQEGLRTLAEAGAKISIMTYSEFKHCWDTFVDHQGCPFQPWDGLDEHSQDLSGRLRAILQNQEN
structure (smiles),measurement,setting,value
Cc1ccc(OCCCCn2c(CO)nc3ccccc32)cc1,EC50,[1],> 50 µM (active)
COc1ccc(N2C(=O)/C(=C\Nn3cnnc3)c3ccccc3C2=O)cc1,IC50,[2],1560 nM (active)
same,IC50,[3],> 59.6 µM (not active)
CCN(CC)c1ccc2cc(NC(=O)CCC(=O)O)c(=O)oc2c1,IC50,[4],> 100 µM (not active)
same,IC50,[5],> 80 µM (inactive)
same,EC50,[6],< 100 nM (active)
same,EC50,[7],7.36 µM (active)
same,EC50,[8],3.7 µM (active)
same,EC50,[9],491 nM (active)
same,EC50,[10],> 50 µM (not active)
same,IC50,[11],> 60 µM (not active)
same,EC50,[12],120 µM (inconclusive)
same,EC50,[13],> 100 µM (not active)
CCOC(=O)c1ccc(S(=O)(=O)N2CCN(CCC#N)CC2)cc1,EC50,[1],> 50 µM (active)
COc1ccc(/C=C/C(=O)c2ccoc2)cc1,AC50,[14],14.1 µM (inconclusive)
same,AC50,[15],11.4 µM (active)
same,AC50,[16],25.1 µM (inconclusive)
CCc1nc2c(cnn2-c2ccc(Cl)cc2)c(=O)n1-c1ccc(OC)cc1,Absolute IC50 (XBP1),[17],10 µM
same,EC50,[18],> 150 µM (not active)
same,EC50,[19],28.3 µM (active)
same,EC50,[20],> 150 µM (not active)
COc1ccc(S(=O)(=O)NCC2CCCO2)cc1NC(=O)c1ccccc1F (centres undefined),AC50,[21],33 µM (active)
S=C(Nc1cc(Cl)ccc1Cl)Nn1cnnc1,IC50,[2],662 nM (active)
same,IC50,[3],> 59.6 µM (not active)
CCOC(=O)c1c(NC(=O)c2ccccc2Cl)sc2c1CCc1ccccc1-2,IC50,[22],> 100 µM (inactive)
FC(F)C(F)(F)C(F)(F)C(F)(F)c1cc(-c2ccccc2)[nH]n1,Absolute IC50 (XBP1),[17],10 µM
O=C(Nc1cc(Cl)ccc1Cl)Nn1cnnc1,IC50,[2],500 nM (active)
same,IC50,[3],> 59.6 µM (not active)
N=C1S/C(=C\c2ccco2)C(=O)N1c1ccc2c(c1)OCO2,IC50,[23],9.96 µM (active)
same,IC50,[24],13.4 µM (active)
same,IC50,[25],39.9 µM (active)
Cc1cc(S(=O)(=O)NCC2CC2)c(Cl)cc1Cl,AC50,[15],1.1 µM (active)
COc1ccc(-c2ccc(OC)cc2)cc1,AC50,[15],78.8 µM (active)
O=c1c2ccccc2[nH]c2ccc(F)cc12,EC50,[1],> 50 µM (active)

# — ChEMBL document CHEMBL1201862, “PubChem BioAssay data set” (2004)
